Laboratory results published in patent publication US8779146B2, “Cilostazol cocrystals and compositions” (Nuformix Limited, priority 2010, dated 2014).
Where two headings read alike, the source gives them in different places.

Key:
[1] = Gravimetric vapour sorption (GVS) moisture sorption isotherm; format: physicochemical; details: for moisture reversibly adsorbed: across the 0-90% relative humidity range at 25° C. under nitrogen; for solid form by XRPD analysis after completion of the isotherm: after GVS cycle 0-90% RH; for solid form by XRPD analysis after completion of the isotherm / hygroscopicity: 25° C.; for hygroscopicity: conclusion from GVS isotherm, 0-90% RH
Protocol: Sorption isotherms were obtained using a SMS DVS Intrinsic moisture sorption analyser, controlled by DVS Intrinsic Control software v1.0.0.30. The sample temperature was maintained at 25° C. by the instrument controls. The humidity was controlled by mixing streams of dry and wet nitrogen, with a total flow rate of 200 ml·min^−1 The relative humidity was measured by a calibrated Rotronic probe (dynamic range of 1.0-100% RH), located near the sample. The weight change, (mass relaxation) of the sample as a function of % RH was constantly monitored by the microbalance (accuracy ±0.005 mg).
Typically 5-20 mg of sample was placed in a tared mesh stainless steel basket under ambient conditions. The sample was loaded and unloaded at 40% RH and 25° C. (typical room conditions). A moisture sorption isotherm was performed as outlined in Table 1 (2 scans giving 1 complete cycle). The standard isotherm was performed at 25° C. at 10% RH intervals over a 0.5-90% RH range. Data analysis was undertaken in Microsoft Excel using DVS Analysis Suite v6.0.0.7. The sample was recovered after completion of the isotherm and re-analyzed by XRPD.

[2] = dog, in vivo, po, 100 mg
Protocol: (§1) A crossover study was carried out using 5 male beagle dogs with a washout period of 5 days between each treatment. Prior to dosing, the dogs were fasted overnight. The capsules were accurately filled with the amount of cilostazol or the corresponding cocrystal that was equivalent to 100 mg cilostazol. The capsules were orally administered to the dogs followed by about 10 mL of water. Food (about 250 g) was provided 4 hours post-dose to all animals.
(§2) Blood samples were collected at pre-dose, 15 and 30 minutes, and 1, 2, 3, 4, 6, 8, 10, 12 and 24 hour post-dose (12 time points) following oral dose administration. Approximately 0.8 ml of whole blood was withdrawn from the cephalic vein and placed in labelled tubes containing sodium heparin as anticoagulant (20 μL of 400 IU/mL sodium heparin solution per mL of blood). Plasma was separated by centrifuging the whole blood at about 2500 g for 10 minutes at 4° C. Separated plasma was stored below −70° C. until analysis.
(§3) A fit for purpose LC-MS/MS method was used for the determination of the cilostazol concentrations in the plasma samples. Pharmacokinetic parameters from individual samples were calculated using the non-compartmental analysis tool of the WinNonlin® software (version 5.2). The area under the plasma concentration curve (AUC) was calculated using the linear trapezoidal rule. Peak plasma concentration (Cmax) and the time taken to reach the peak plasma concentration (Tmax) were the observed values.

[3] = low solubility, high permeability drug; cited from earlier work
[4] = Pharmacokinetic study, oral capsule, crossover, fasted beagle dogs; details: male, dog, plasma, 100 mg
Protocol: as §1, §2, §3

[5] = cited from earlier work

| moisture reversibly adsorbed [1] [% w/w] | solid form by XRPD analysis after completion of the isotherm [1] | hygroscopicity [1] | AUC [2] [ng·h/mL] | Cmax [2] [ng/mL] | Tmax [2] [h] | SMILES | BCS class [3] | AUC [4] [ng·h/mL] | Cmax [4] [ng/mL] | Tmax [4] [h] | solubility ([5]; in 0.1N HCl) | solubility ([5]; in 0.1N NaOH) | solubility ([5]; in ethanol) | solubility ([5]; in methanol) | solubility ([5]; in water) |
| --- | --- | --- | --- | --- | --- | --- | --- | --- | --- | --- | --- | --- | --- | --- | --- |
| 0.1 | unchanged | not hygroscopic | – | – | – | O.O=C(O)c1cc(O)ccc1O.O=C1CCc2cc(OCCCCc3nnnn3C3CCCCC3)ccc2N1 | – | – | – | – | – | – | – | – | – |
| < 0.3 | unchanged | not hygroscopic | 1216.37 | 471.42 | 1.00 | O=C(O)c1cc(O)ccc1O.O=C1CCc2cc(OCCCCc3nnnn3C3CCCCC3)ccc2N1 [1:1 cilostazol gentisic acid cocrystal] | – | – | – | – | – | – | – | – | – |
| – | – | – | – | – | – | O=C1CCc2cc(OCCCCc3nnnn3C3CCCCC3)ccc2N1 [Cilostazol, 6-[4-(1-cyclohexyl-1H-tetrazol-5-yl)butoxy]-3,4-dihydro-2(1H)-quinolinone] | Class II | 371 | 81.5 | 2 | practically insoluble | practically insoluble | slightly soluble | slightly soluble | practically insoluble |
